Data taken from patent US9834521B2, “Choline kinase inhibitors” (ARIAD Pharmaceuticals, Inc., priority 2013, dated 2017).

Biological target: T1, truncated form of human Choline kinase α1 that includes residues 75-457 (Homo sapiens, UniProt P35790)
T1 construct: made in house
Test: Kinase Assay, coupled (ATP regeneration) LDH/PK assay, NADH absorbance
Assay type: biochemical
Conditions: not given
Description: Absorbance of NADH (340 nm) was measured over 30 min using a SpectraMax M5 (Molecular Devices). Initial reaction velocity (ΔA340/Δt) was calculated and plotted as a function of inhibitor concentration in a 2-fold dilution series. IC50 values were obtained by fitting the relative velocities to a dose-response model.

T1 sequence (P35790 75-457): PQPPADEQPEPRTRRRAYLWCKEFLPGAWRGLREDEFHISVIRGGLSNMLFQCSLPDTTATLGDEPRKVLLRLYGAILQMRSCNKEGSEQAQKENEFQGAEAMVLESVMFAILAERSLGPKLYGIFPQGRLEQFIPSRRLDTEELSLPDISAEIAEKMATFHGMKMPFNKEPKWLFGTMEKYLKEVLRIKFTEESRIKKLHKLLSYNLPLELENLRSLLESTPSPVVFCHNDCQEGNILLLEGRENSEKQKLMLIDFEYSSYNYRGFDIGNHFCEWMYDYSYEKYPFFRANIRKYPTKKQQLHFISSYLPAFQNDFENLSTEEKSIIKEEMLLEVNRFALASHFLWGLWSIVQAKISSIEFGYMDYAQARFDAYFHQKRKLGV

Row | Structure (SMILES) | IC50 [nM]
1 | CN1CCCN(Cc2ccc(-c3ccc(C(=O)N4CCOCC4)cc3)c(C#N)c2)CC1 [Example 36, 4-((4-methyl-1,4-diazepan-1-yl)methyl)-4′-(morpholine-4-carbonyl)-[1,1′-biphenyl]-2-carbonitrile] | < 2000
2 | CN1CCCN(Cc2ccc(-c3ccc(CNP(C)(C)=O)cc3)c(C#N)c2)CC1 [Example 46, N-((2′-cyano-4′-((4-methyl-1,4-diazepan-1-yl)methyl)-[1,1′-biphenyl]-4-yl)methyl)-P,P-dimethylphosphinic amide] | < 500
3 | CN1CCCN(Cc2ccc(-c3ccc(C(=O)N4CCCCC4)cc3)c(C#N)c2)CC1 [Example 34, 4-((4-methyl-1,4-diazepan-1-yl)methyl)-4′-(piperidine-1-carbonyl)-[1,1′-biphenyl]-2-carbonitrile] | < 500
4 | CN1CCCN(Cc2ccc(-c3ccc(C(=O)N4CCC(=O)CC4)cc3)c(C#N)c2)CC1 [Example 31, 4-((4-methyl-1,4-diazepan-1-yl)methyl)-4′-(4-oxopiperidine-1-carbonyl)-[1,1′-biphenyl]-2-carbonitrile] | < 2000

Same assay, conditions: Examples designated with an asterisk (*): version 1 of the Kinase Assay, 200 nM enzyme; read-out: IC50

Row | Structure (SMILES) | IC50 [nM]
5 | CN1CCCN(Cc2ccc(-c3ccc(F)cc3)cc2)CC1 [Example 135, 1-((4′-fluoro-[1,1′-biphenyl]-4-yl)methyl)-4-methyl-1,4-diazepane] | < 50000
6 | CN1CCCN(Cc2ccc(CCCCc3ccc(CN4CCCN(C)CC4)cc3)cc2)CC1 [Example 154, 1,4-bis(4-((4-methyl-1,4-diazepan-1-yl)methyl)phenyl)butane] | < 50000
7 | CN1CCC(N2CCN(Cc3ccc(CN4CCCN(C)CC4)cc3)CC2)CC1 [Example 149, 1-methyl-4-(4-((4-(1-methylpiperidin-4-yl)piperazin-1-yl)methyl)benzyl)-1,4-diazepane] | < 50000
8 | CN1CCCN(Cc2ccc(-c3ccc(CC(=O)O)cc3)cc2)CC1 [Example 160, 2-(4′-((4-methyl-1,4-diazepan-1-yl)methyl)-[1,1′-biphenyl]-4-yl)acetic acid] | < 50000
9 | CN1CCCN(Cc2ccc(-c3cccc4ccccc34)cc2)CC1 [Example 136, 1-methyl-4-(4-(naphthalen-1-yl)benzyl)-1,4-diazepane] | < 50000
10 | CN1CCCN(Cc2ccc(CN3CC[C@@H](O)C3)cc2)CC1 [Example 150, (R)-1-(4-((4-methyl-1,4-diazepan-1-yl)methyl)benzyl)pyrrolidin-3-ol] | < 50000
11 | C=CCN1CCN(Cc2ccc(CN3CCCN(C)CC3)cc2)CC1 [Example 146, 1-(4-((4-allylpiperazin-1-yl)methyl)benzyl)-4-methyl-1,4-diazepane] | < 50000

Same assay, conditions: Examples not designated with an asterisk; footnote prints version 1 of the Kinase Assay; read-out: IC50

Row | Structure (SMILES) | IC50 [nM]
12 | CN1CCCN(Cc2ccc(-c3ccc(C(=O)N4CCCC(O)C4)cc3)c(C#N)c2)CC1 (stereo not drawn) [Example 23, 4′-(3-hydroxypiperidine-1-carbonyl)-4-((4-methyl-1,4-diazepan-1-yl)methyl)-[1,1′-biphenyl]-2-carbonitrile] | < 500
13 | CN1CCCN(Cc2ccc(-c3ccc(C(=O)N4CCCN(C)CC4)cc3-c3ccc(C(=O)N(C)C)cc3)c(C#N)c2)CC1 [Example 76] | < 2000
14 | CCOC(=O)Cc1ccc(-c2ccc(CN3CCCN(C)CC3)cc2)cc1 [Example 130, ethyl 2-(4′-((4-methyl-1,4-diazepan-1-yl)methyl)-[1,1′-biphenyl]-4-yl)acetate] | < 50000
15 | CN1CCCN(Cc2ccc(-c3ccc(CO)cc3)c(C#N)c2)CC1 [Example 108, 4′-(hydroxymethyl)-4-((4-methyl-1,4-diazepan-1-yl)methyl)-[1,1′-biphenyl]-2-carbonitrile] | < 500
16 | CN1CCCN(Cc2ccc(-c3ccc([N+](=O)[O-])cc3)c(C#N)c2)CC1 [Example 106, 4-((4-methyl-1,4-diazepan-1-yl)methyl)-4′-nitro-[1,1′-biphenyl]-2-carbonitrile] | < 500
17 | CN1CCCN(Cc2ccc(-c3cnc(N)nc3)c(C#N)c2)CC1 [Example 119, 2-(2-aminopyrimidin-5-yl)-5-((4-methyl-1,4-diazepan-1-yl)methyl)benzonitrile] | < 2000
18 | COCCN1CCN(C(=O)c2ccc(-c3ccc(CN4CCCN(C)CC4)cc3C#N)cc2)CC1 [Example 21, 4′-(4-(2-methoxyethyl)piperazine-1-carbonyl)-4-((4-methyl-1,4-diazepan-1-yl)methyl)-[1,1′-biphenyl]-2-carbonitrile] | < 500
19 | CC(=O)N1CCN(c2ccc(-c3ccc(CN4CCCN(C)CC4)cc3)cn2)CC1 [Example 120, 1-(4-(5-(4-((4-methyl-1,4-diazepan-1-yl)methyl)phenyl)pyridin-2-yl)piperazin-1-yl)ethanone] | < 2000
20 | CN1CCCN(Cc2ccc(-c3ccc(CN4CCCN(C)CC4)cc3CN)cc2)CC1 [Example 52, (4,4′-bis((4-methyl-1,4-diazepan-1-yl)methyl)-[1,1′-biphenyl]-2-yl)methanamine] | < 500
21 | CNC(=O)NCc1ccc(-c2ccc(CN3CCCN(C)CC3)cc2C#N)cc1 [Example 47, 1-((2′-cyano-4′-((4-methyl-1,4-diazepan-1-yl)methyl)-[1,1′-biphenyl]-4-yl)methyl)-3-methylurea] | < 500
22 | CC(=O)NNC(=O)CCc1ccc(-c2ccc(CN3CCCN(C)CC3)cc2)cc1 [Example 122, N′-acetyl-3-(4′-((4-methyl-1,4-diazepan-1-yl)methyl)-[1,1′-biphenyl]-4-yl)propanehydrazide] | < 2000
23 | CN1CCCN(Cc2ccc(-c3ccc(C(=O)N4CCN(CCO)CC4)cc3)c(C#N)c2)CC1 [Example 18, 4′-(4-(2-hydroxyethyl)piperazine-1-carbonyl)-4-((4-methyl-1,4-diazepan-1-yl)methyl)-[1,1′-biphenyl]-2-carbonitrile] | < 500
24 | CN1CCCN(Cc2ccc(-c3ccc(C(N)=O)cc3)c(C#N)c2)CC1 [Example 28, 2′-cyano-4′-((4-methyl-1,4-diazepan-1-yl)methyl)-[1,1′-biphenyl]-4-carboxamide] | < 500
25 | CN1CCCN(Cc2ccc(-c3ccc(C(=O)N4CCC(N5CCOCC5)CC4)cc3)cc2)CC1 [Example 39, (4′-((4-methyl-1,4-diazepan-1-yl)methyl)-[1,1′-biphenyl]-4-yl)(4-morpholinopiperidin-1-yl)methanone] | < 50000
26 | CC(=O)N1CC=C(c2ccc(CN3CCCN(C)CC3)cc2C#N)CC1 [Example 103, 2-(1-acetyl-1,2,3,6-tetrahydropyridin-4-yl)-5-((4-methyl-1,4-diazepan-1-yl)methyl)benzonitrile] | < 500
27 | CN1CCCN(Cc2ccc(-c3ccc(C(=O)N4CCCN(C)CC4)cc3F)cc2)CC1 [Example 59, (2-fluoro-4′-((4-methyl-1,4-diazepan-1-yl)methyl)-[1,1′-biphenyl]-4-yl)(4-methyl-1,4-diazepan-1-yl)methanone] | < 2000
28 | CN1CCCN(Cc2ccc(-c3cc[nH]c3)c(C#N)c2)CC1 [Example 117, 5-((4-methyl-1,4-diazepan-1-yl)methyl)-2-(1H-pyrrol-3-yl)benzonitrile] | < 2000
29 | Cc1cc(CN2CCCN(C)CC2)ccc1-c1ccc(CN2CCCN(C)CC2)cc1 [Example 49, 4,4′-((2-methyl-[1,1′-biphenyl]-4,4′-diyl)bis(methylene))bis(1-methyl-1,4-diazepane)] | < 500
30 | CN1CCCN(Cc2ccc(-c3ccc(CC(=O)O)cc3)c(C#N)c2)CC1 [Example 127, 2-(2′-cyano-4′-((4-methyl-1,4-diazepan-1-yl)methyl)-[1,1′-biphenyl]-4-yl)acetic acid] | < 50000
31 | CN1CCCN(Cc2ccc(-c3ccc(C(=O)N4CCCN(C)CC4)cc3Br)c(C#N)c2)CC1 [Example 61, 2′-bromo-4-((4-methyl-1,4-diazepan-1-yl)methyl)-4′-(4-methyl-1,4-diazepane-1-carbonyl)[1,1′-biphenyl]-2-carbonitrile] | < 500
32 | CN1CCCN(Cc2ccc(-c3ccc(CN4CCCCC4)cc3)c(C#N)c2)CC1 [Example 13, 4-((4-methyl-1,4-diazepan-1-yl)methyl)-4′-(piperidin-1-ylmethyl)-[1,1′-biphenyl]-2-carbonitrile] | < 2000
33 | CN1CCCN(Cc2ccc(-c3ccccc3C(N)=O)cc2)CC1 [Example 133, 4′-((4-methyl-1,4-diazepan-1-yl)methyl)-[1,1′-biphenyl]-2-carboxamide] | < 50000
34 | CC(=O)N1CCN(C(=O)c2ccc(-c3ccc(CN4CCCN(C)CC4)cc3)cc2)CC1 [Example 38, 1-(4-(4′-((4-methyl-1,4-diazepan-1-yl)methyl)-[1,1′-biphenyl]-4-carbonyl)piperazin-1-yl)ethanone] | < 50000
35 | CN1CCCN(Cc2ccc(-c3ccc(-c4nnn[nH]4)cc3)cc2)CC1 [Example 129, 1-((4′-(1H-tetrazol-5-yl)-[1,1′-biphenyl]-4-yl)methyl)-4-methyl-1,4-diazepane] | < 50000
36 | CN1CCCN(Cc2ccc(-c3ccc(C(=O)N4CCCN(C)CC4)cc3-c3ccc(CC#N)cc3)c(C#N)c2)CC1 [Example 67, 4″-(cyanomethyl)-4-((4-methyl-1,4-diazepan-1-yl)methyl)-4′-(4-methyl-1,4-diazepane-1-carbonyl)-[1,1′:2′,1″-terphenyl]-2-carbonitrile] | < 500
37 | Cc1cc(-c2ccc(CN3CCCN(C)CC3)cc2C#N)cnc1N [Example 118, 2-(6-amino-5-methylpyridin-3-yl)-5-((4-methyl-1,4-diazepan-1-yl)methyl)benzonitrile] | < 2000
38 | CC(=O)Nc1cc(-c2ccc(CN3CCCN(C)CC3)cc2C#N)ccc1[N+](=O)[O-] [Example 110, N-(2′-cyano-4′-((4-methyl-1,4-diazepan-1-yl)methyl)-4-nitro-[1,1′-biphenyl]-3-yl)acetamide] | < 500
39 | CN1CCCN(Cc2ccc(-c3ccc(C(N)=O)cc3F)c(C#N)c2)CC1 [Example 96, 2′-cyano-2-fluoro-4′-((4-methyl-1,4-diazepan-1-yl)methyl)-[1,1′-biphenyl]-4-carboxamide] | < 500
